Measured values: patent US7071178B2, “Use of vitamin D-derivatives in the treatment of osteoporosis and related bone disorders, as well as novel vitamin D3-derivatives” (Leo Pharmaceutical Products, Ltd., priority 2000, dated 2006)

Experiments:
OVX rats [1] = experiment: OVX rat model on osteoporosis: urine calcium; format: in vivo; set-up: key to Effect on urine calcium vs 1,25D3: <: less effect than the reference dose of 1,25D3 (0.25 ug/kg); <=: less or the same effect as the reference dose of 1,25D3 (0.25 ug/kg); =: same effect as the reference dose of 1,25D3 (0.25 ug/kg); =>: same or better effect as the reference dose of 1,25D3 (0.25 ug/kg); >: better effect than the reference dose of 1,25D3 (0.25 ug/kg); details: oral 28 days
Excerpt: (§1) Pharmacological Methods—OVX Rat Model on Osteoporosis
(§2) To study bone anabolic properties and the effects of the vitamin D analogues of the present invention in preventing or treating demineralisation of the skeleton in vivo, a 4 weeks OVX rat model was used:
(§3) An ovariectomized rat model (OVX model), orally dosed for 28 days is useful for screening of vitamin D analogues. In this model ovariectomy produces alterations in the cancellous network identical to those seen in the human skeleton during ageing and the menopause. Besides this the model and the following analyses can be performed under very standardised conditions. 1α,25(OH)2D3 is used as a reference compound.
(§4) Female Sprague Dawley rats weighing approximately 130 g (40–45 days old) were purchased from MB, Ejby, Denmark. The animals were fed a commercial diet and allowed free access to food and drinking water. The animals were split into groups receiving differential treatment.
(§5) The animals were anaesthetised and ovariectomized through a dorsal incision.
(§6) Treatment of OVX animals was started 2 weeks after ovariectomy.
(§7) The animals were dosed orally for 28 days. The oral dosage was by gavage 0.1 ml/100 g bodyweight. The bodyweight of each animal was recorded every day prior to oral dosing. On day 7, 14, 21 and 28 the animals were housed separately for 24 hours in metabolic cages for collection of urine. Urine was frozen at −20° C. for later calcium measurement.
(§8) Effect of Compound 145 compared to the reference dose of 1,25(OH)2D3 (1,25D3) (0.25 μg/kg) and compared to the OVX control group (shown in %) are shown in Tables 1 to 4.

OVX rats [2] = experiment: OVX rat model on osteoporosis: boneweight; format: in vivo; set-up: key to Anabolic effect on boneweight, Tibia, vs 1,25D3 / Anabolic effect on boneweight, Tibial Meta., vs 1,25D3 / Anabolic effect on boneweight, L4, vs 1,25D3 / Anabolic effect on boneweight, Femur, vs 1,25D3: <: less effect than the reference dose of 1,25D3 (0.25 ug/kg); <=: less or the same effect as the reference dose of 1,25D3 (0.25 ug/kg); =: same effect as the reference dose of 1,25D3 (0.25 ug/kg); =>: same or better effect as the reference dose of 1,25D3 (0.25 ug/kg); >: better effect than the reference dose of 1,25D3 (0.25 ug/kg); details: for Anabolic effect on boneweight, Femur, vs 1,25D3 / Anabolic effect on boneweight, Femur, vs Ovx contr / Anabolic effect on boneweight, L4, vs 1,25D3 / Anabolic effect on boneweight, L4, vs Ovx contr / Anabolic effect on boneweight, Tibia, vs 1,25D3 / Anabolic effect on boneweight, Tibia, vs Ovx contr / Anabolic effect on boneweight, Tibial Meta., vs 1,25D3 / Anabolic effect on boneweight, Tibial Meta., vs Ovx contr: oral 28 days
Excerpt: FIG. 1 is a graphic illustration of the effect on the weight of the lumbal vertebrae, L4, in rats according to the OVX rat model described herein, and wherein the animal groups received treatment according to the scheme below. A statistical analysis is shown below the graphic illustration. Differences between groups were investigated by the Kruskal-Wallis test, including a multiple comparison procedure: ns represents non-significant, nt represents not tested, and * represents p<0.05. Differences were considered significant at a p<0.05. Results are presented in the bar diagram as means+SD.
The animals were divided into 6 groups: • Group 1: Intact control, dosed Propylene glycol 0.1 ml/kg (Vehicle) • Group 2: OVX rats control, dosed Propylene glycol 0.1 ml/kg (Vehicle) • Group 3: OVX rats, dosed 1α,25(OH)2D3, […], dosed Compound 145, […]
as §1, §2, §3, §4, §5, §6, §7
Left and right femur, left and right tibia, lumbal vertebrae 3 and 4 (L3 and L4) were removed and cleaned for all soft- and connecting tissue. Left femur, left and right tibia and L4 were dried in an oven at 50–60° C. for at least 24 hours and immediately hereafter weighed. The bones were burned in an oven at 800° C. for 4 hours, dissolved in 1N HCl, and analysed for calcium content in a Hitachi 911 autoanalyser. Right femur and L3 were kept in 0.9% NaCl and frozen at −20° C. for later biomechanical testing performed by Jesper Skovhus Thomsen and Lis Mosekilde at Aarhus University, measuring various biomechanical parameters.
as §8

C=C1C(=CC=C2CCCC3(C)C2CCC3C(C)CSc2ccc(C(C)(C)O)cc2)CC(O)CC1O [Compound 145, 1(S),3(R)-Dihydroxy-20(R)-(4-((1-hydroxy-1-methyl)ethyl)phenylthiomethyl)-9,10-seco-pregna-5(Z),7(E),10(19)-triene]
Effect on urine calcium vs 1,25D3 (OVX rats [1]; 1 μg/kg, MTR/16): No | Effect on urine calcium vs Ovx contr (OVX rats [1]; 1 μg/kg, MTR/16): −23% | Effect on urine calcium vs 1,25D3 (OVX rats [1]; 10 μg/kg, MTR/16): <<< | Effect on urine calcium vs Ovx contr (OVX rats [1]; 10 μg/kg, MTR/16): 104% | Effect on urine calcium vs 1,25D3 (OVX rats [1]; 10 μg/kg, MTR/23): <<< | Effect on urine calcium vs Ovx contr (OVX rats [1]; 10 μg/kg, MTR/23): 45% | Effect on urine calcium vs 1,25D3 (OVX rats [1]; 25 μg/kg, MTR/27): << | Effect on urine calcium vs Ovx contr (OVX rats [1]; 25 μg/kg, MTR/27): 155% | Effect on urine calcium vs 1,25D3 (OVX rats [1]; 50 μg/kg, MTR/23): <= | Effect on urine calcium vs Ovx contr (OVX rats [1]; 50 μg/kg, MTR/23): 373% | Effect on urine calcium vs 1,25D3 (OVX rats [1]; 50 μg/kg, MTR/27): = | Effect on urine calcium vs Ovx contr (OVX rats [1]; 50 μg/kg, MTR/27): 750% | Effect on urine calcium vs 1,25D3 (OVX rats [1]; 75 μg/kg, MTR/27): >= | Effect on urine calcium vs Ovx contr (OVX rats [1]; 75 μg/kg, MTR/27): 777% | Effect on urine calcium vs 1,25D3 (OVX rats [1]; 100 μg/kg, MTR/23): <= | Effect on urine calcium vs Ovx contr (OVX rats [1]; 100 μg/kg, MTR/23): 463% | Anabolic effect on boneweight, Femur, vs 1,25D3 (OVX rats [2]; 1 μg/kg, MTR/16): <= | Anabolic effect on boneweight, Femur, vs Ovx contr (OVX rats [2]; 1 μg/kg, MTR/16): 6% | Anabolic effect on boneweight, L4, vs 1,25D3 (OVX rats [2]; 1 μg/kg, MTR/16): <= | Anabolic effect on boneweight, L4, vs Ovx contr (OVX rats [2]; 1 μg/kg, MTR/16): 9% | Anabolic effect on boneweight, Tibia, vs 1,25D3 (OVX rats [2]; 1 μg/kg, MTR/16): <= | Anabolic effect on boneweight, Tibia, vs Ovx contr (OVX rats [2]; 1 μg/kg, MTR/16): 6% | Anabolic effect on boneweight, Tibial Meta., vs 1,25D3 (OVX rats [2]; 1 μg/kg, MTR/16): < | Anabolic effect on boneweight, Tibial Meta., vs Ovx contr (OVX rats [2]; 1 μg/kg, MTR/16): 6% | Anabolic effect on boneweight, Femur, vs 1,25D3 (OVX rats [2]; 10 μg/kg, MTR/16): > | Anabolic effect on boneweight, Femur, vs Ovx contr (OVX rats [2]; 10 μg/kg, MTR/16): 10% | Anabolic effect on boneweight, L4, vs 1,25D3 (OVX rats [2]; 10 μg/kg, MTR/16): > | Anabolic effect on boneweight, L4, vs Ovx contr (OVX rats [2]; 10 μg/kg, MTR/16): 13% | Anabolic effect on boneweight, Tibia, vs 1,25D3 (OVX rats [2]; 10 μg/kg, MTR/16): > | Anabolic effect on boneweight, Tibia, vs Ovx contr (OVX rats [2]; 10 μg/kg, MTR/16): 8% | Anabolic effect on boneweight, Tibial Meta., vs 1,25D3 (OVX rats [2]; 10 μg/kg, MTR/16): > | Anabolic effect on boneweight, Tibial Meta., vs Ovx contr (OVX rats [2]; 10 μg/kg, MTR/16): 14% | Anabolic effect on boneweight, Femur, vs 1,25D3 (OVX rats [2]; 10 μg/kg, MTR/23): >= | Anabolic effect on boneweight, Femur, vs Ovx contr (OVX rats [2]; 10 μg/kg, MTR/23): 5% | Anabolic effect on boneweight, L4, vs 1,25D3 (OVX rats [2]; 10 μg/kg, MTR/23): >= | Anabolic effect on boneweight, L4, vs Ovx contr (OVX rats [2]; 10 μg/kg, MTR/23): 4% | Anabolic effect on boneweight, Tibia, vs 1,25D3 (OVX rats [2]; 10 μg/kg, MTR/23): >= | Anabolic effect on boneweight, Tibia, vs Ovx contr (OVX rats [2]; 10 μg/kg, MTR/23): 5% | Anabolic effect on boneweight, Tibial Meta., vs 1,25D3 (OVX rats [2]; 10 μg/kg, MTR/23): < | Anabolic effect on boneweight, Tibial Meta., vs Ovx contr (OVX rats [2]; 10 μg/kg, MTR/23): 8% | Anabolic effect on boneweight, Femur, vs 1,25D3 (OVX rats [2]; 25 μg/kg, MTR/27): > | Anabolic effect on boneweight, Femur, vs Ovx contr (OVX rats [2]; 25 μg/kg, MTR/27): 4% | Anabolic effect on boneweight, L4, vs 1,25D3 (OVX rats [2]; 25 μg/kg, MTR/27): > | Anabolic effect on boneweight, L4, vs Ovx contr (OVX rats [2]; 25 μg/kg, MTR/27): 9% | Anabolic effect on boneweight, Tibia, vs 1,25D3 (OVX rats [2]; 25 μg/kg, MTR/27): > | Anabolic effect on boneweight, Tibia, vs Ovx contr (OVX rats [2]; 25 μg/kg, MTR/27): 3% | Anabolic effect on boneweight, Tibial Meta., vs 1,25D3 (OVX rats [2]; 25 μg/kg, MTR/27): > | Anabolic effect on boneweight, Tibial Meta., vs Ovx contr (OVX rats [2]; 25 μg/kg, MTR/27): −2% | Anabolic effect on boneweight, Femur, vs 1,25D3 (OVX rats [2]; 50 μg/kg, MTR/23): >> | Anabolic effect on boneweight, Femur, vs Ovx contr (OVX rats [2]; 50 μg/kg, MTR/23): 14% | Anabolic effect on boneweight, L4, vs 1,25D3 (OVX rats [2]; 50 μg/kg, MTR/23): >> | Anabolic effect on boneweight, L4, vs Ovx contr (OVX rats [2]; 50 μg/kg, MTR/23): 15% | Anabolic effect on boneweight, Tibia, vs 1,25D3 (OVX rats [2]; 50 μg/kg, MTR/23): >> | Anabolic effect on boneweight, Tibia, vs Ovx contr (OVX rats [2]; 50 μg/kg, MTR/23): 13% | Anabolic effect on boneweight, Tibial Meta., vs 1,25D3 (OVX rats [2]; 50 μg/kg, MTR/23): = | Anabolic effect on boneweight, Tibial Meta., vs Ovx contr (OVX rats [2]; 50 μg/kg, MTR/23): 22% | Anabolic effect on boneweight, Femur, vs 1,25D3 (OVX rats [2]; 50 μg/kg, MTR/27): > | Anabolic effect on boneweight, Femur, vs Ovx contr (OVX rats [2]; 50 μg/kg, MTR/27): 6% | Anabolic effect on boneweight, L4, vs 1,25D3 (OVX rats [2]; 50 μg/kg, MTR/27): > | Anabolic effect on boneweight, L4, vs Ovx contr (OVX rats [2]; 50 μg/kg, MTR/27): 11% | Anabolic effect on boneweight, Tibia, vs 1,25D3 (OVX rats [2]; 50 μg/kg, MTR/27): > | Anabolic effect on boneweight, Tibia, vs Ovx contr (OVX rats [2]; 50 μg/kg, MTR/27): 4% | Anabolic effect on boneweight, Tibial Meta., vs 1,25D3 (OVX rats [2]; 50 μg/kg, MTR/27): > | Anabolic effect on boneweight, Tibial Meta., vs Ovx contr (OVX rats [2]; 50 μg/kg, MTR/27): −1% | Anabolic effect on boneweight, Femur, vs 1,25D3 (OVX rats [2]; 75 μg/kg, MTR/27): > | Anabolic effect on boneweight, Femur, vs Ovx contr (OVX rats [2]; 75 μg/kg, MTR/27): 8% | Anabolic effect on boneweight, L4, vs 1,25D3 (OVX rats [2]; 75 μg/kg, MTR/27): > | Anabolic effect on boneweight, L4, vs Ovx contr (OVX rats [2]; 75 μg/kg, MTR/27): 13% | Anabolic effect on boneweight, Tibia, vs 1,25D3 (OVX rats [2]; 75 μg/kg, MTR/27): > | Anabolic effect on boneweight, Tibia, vs Ovx contr (OVX rats [2]; 75 μg/kg, MTR/27): 7% | Anabolic effect on boneweight, Tibial Meta., vs 1,25D3 (OVX rats [2]; 75 μg/kg, MTR/27): >> | Anabolic effect on boneweight, Tibial Meta., vs Ovx contr (OVX rats [2]; 75 μg/kg, MTR/27): 9% | Anabolic effect on boneweight, Femur, vs 1,25D3 (OVX rats [2]; 100 μg/kg, MTR/23): > | Anabolic effect on boneweight, Femur, vs Ovx contr (OVX rats [2]; 100 μg/kg, MTR/23): 9% | Anabolic effect on boneweight, L4, vs 1,25D3 (OVX rats [2]; 100 μg/kg, MTR/23): > | Anabolic effect on boneweight, L4, vs Ovx contr (OVX rats [2]; 100 μg/kg, MTR/23): 12% | Anabolic effect on boneweight, Tibia, vs 1,25D3 (OVX rats [2]; 100 μg/kg, MTR/23): > | Anabolic effect on boneweight, Tibia, vs Ovx contr (OVX rats [2]; 100 μg/kg, MTR/23): 7% | Anabolic effect on boneweight, Tibial Meta., vs 1,25D3 (OVX rats [2]; 100 μg/kg, MTR/23): = | Anabolic effect on boneweight, Tibial Meta., vs Ovx contr (OVX rats [2]; 100 μg/kg, MTR/23): 24% | bone anabolic effects (boneweight, biomechanical strength) compared to 1,25D3 (OVX rats [2]; summary of Tables 1 to 4, FIG. 1 and FIG. 2): comparable to or even better than 1,25D3
